#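 Dose response: 5 concentrations. Exposure: 48 h. Format: 96-well plates. Endpoint: linear interpolation; highest concentration if not reached. GI50 is the concentration that inhibits growth by half. The concentration for full growth arrest is given as TGI.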
# Assays:
# Test in all cases: DTP human tumour cell line panel, 48 h
# SN12C renal = test system: SN12C renal
# HS 578T breast = test system: HS 578T breast
# M14 melanoma = test system: M14 melanoma
# HL-60(TB) leukemia = test system: HL-60(TB) leukemia
# UACC-62 melanoma = test system: UACC-62 melanoma
# SK-OV-3 ovarian = test system: SK-OV-3 ovarian
# TK-10 renal = test system: TK-10 renal
# SNB-19 CNS = test system: SNB-19 CNS
# OVCAR-5 ovarian = test system: OVCAR-5 ovarian
# MCF7 breast = test system: MCF7 breast
# OVCAR-3 ovarian = test system: OVCAR-3 ovarian
# SW-620 colon = test system: SW-620 colon
# MOLT-4 leukemia = test system: MOLT-4 leukemia
# NCI-H522 lung = test system: NCI-H522 lung
# MDA-MB-231 breast = test system: MDA-MB-231 breast
# HCT-15 colon = test system: HCT-15 colon
# BT-549 breast = test system: BT-549 breast
# SNB-75 CNS = test system: SNB-75 CNS
# HOP-92 NSCLC = test system: HOP-92 NSCLC
# ACHN renal = test system: ACHN renal
# NCI-H226 lung = test system: NCI-H226 lung
# LOX IMVI melanoma = test system: LOX IMVI melanoma
# COLO 205 colon = test system: COLO 205 colon
# A549 NSCLC = test system: A549 NSCLC
# CAKI-1 renal = test system: CAKI-1 renal
# T-47D breast = test system: T-47D breast
# PC-3 prostate = test system: PC-3 prostate
# EKVX NSCLC = test system: EKVX NSCLC
# K-562 leukemia = test system: K-562 leukemia
# KM12 colon = test system: KM12 colon
# DU-145 prostate = test system: DU-145 prostate
# SF-295 CNS = test system: SF-295 CNS
# NCI/ADR-RES ovarian = test system: NCI/ADR-RES ovarian
# HOP-62 NSCLC = test system: HOP-62 NSCLC
# SR leukemia = test system: SR leukemia
# HT29 colon = test system: HT29 colon
# UACC-257 melanoma = test system: UACC-257 melanoma
# UO-31 renal = test system: UO-31 renal
# SF-539 CNS = test system: SF-539 CNS
# MALME-3M melanoma = test system: MALME-3M melanoma
# HCT-116 colon = test system: HCT-116 colon
# MDA-MB-435 = test system: MDA-MB-435
# NCI-H460 lung = test system: NCI-H460 lung
# NCI-H23 lung = test system: NCI-H23 lung
# IGROV1 ovarian = test system: IGROV1 ovarian
# RXF 393 renal = test system: RXF 393 renal
# U251 CNS = test system: U251 CNS
# RPMI-8226 leukemia = test system: RPMI-8226 leukemia
# 786-0 renal = test system: 786-0 renal
# OVCAR-8 ovarian = test system: OVCAR-8 ovarian
# SK-MEL-5 melanoma = test system: SK-MEL-5 melanoma
# SK-MEL-28 melanoma = test system: SK-MEL-28 melanoma
# SK-MEL-2 melanoma = test system: SK-MEL-2 melanoma
# CCRF-CEM leukemia = test system: CCRF-CEM leukemia
# OVCAR-4 ovarian = test system: OVCAR-4 ovarian
# HCC-2998 colon = test system: HCC-2998 colon
# SF-268 CNS = test system: SF-268 CNS
# A498 renal = test system: A498 renal
structure (smiles),measurement,setting,value
COc1cnc2c(c1)C(=O)c1c-2n(CCCBr)c(=O)c2cc([N+](=O)[O-])ccc12,GI50,SN12C renal,269 nM
same,TGI,SN12C renal,3480 nM
same,GI50,HS 578T breast,2550 nM
same,TGI,HS 578T breast,40100 nM
same,GI50,M14 melanoma,140 nM
same,TGI,M14 melanoma,2120 nM
same,GI50,HL-60(TB) leukemia,310 nM
same,TGI,HL-60(TB) leukemia,53000 nM
same,GI50,UACC-62 melanoma,82.1 nM
same,TGI,UACC-62 melanoma,1480 nM
same,GI50,SK-OV-3 ovarian,312 nM
same,TGI,SK-OV-3 ovarian,7740 nM
same,GI50,TK-10 renal,2000 nM
same,TGI,TK-10 renal,16300 nM
same,GI50,SNB-19 CNS,282 nM
same,TGI,SNB-19 CNS,18700 nM
same,GI50,OVCAR-5 ovarian,1190 nM
same,TGI,OVCAR-5 ovarian,10200 nM
same,GI50,MCF7 breast,45.9 nM
same,TGI,MCF7 breast,1200 nM
same,GI50,OVCAR-3 ovarian,248 nM
same,TGI,OVCAR-3 ovarian,1050 nM
same,GI50,SW-620 colon,60.7 nM
same,TGI,SW-620 colon,5130 nM
same,GI50,MOLT-4 leukemia,52 nM
same,TGI,MOLT-4 leukemia,10200 nM
same,GI50,NCI-H522 lung,433 nM
same,TGI,NCI-H522 lung,8460 nM
same,GI50,MDA-MB-231 breast,2580 nM
same,TGI,MDA-MB-231 breast,31500 nM
same,GI50,HCT-15 colon,350 nM
same,TGI,HCT-15 colon,15300 nM
same,GI50,BT-549 breast,519 nM
same,TGI,BT-549 breast,9890 nM
same,GI50,SNB-75 CNS,430 nM
same,TGI,SNB-75 CNS,13800 nM
same,GI50,HOP-92 NSCLC,1770 nM
same,TGI,HOP-92 NSCLC,13700 nM
same,GI50,ACHN renal,87.8 nM
same,TGI,ACHN renal,3140 nM
same,GI50,NCI-H226 lung,499 nM
same,TGI,NCI-H226 lung,3750 nM
same,GI50,LOX IMVI melanoma,75 nM
same,TGI,LOX IMVI melanoma,549 nM
same,GI50,COLO 205 colon,259 nM
same,TGI,COLO 205 colon,2410 nM
same,GI50,A549 NSCLC,347 nM
same,TGI,A549 NSCLC,6850 nM
same,GI50,CAKI-1 renal,45.9 nM
same,TGI,CAKI-1 renal,3050 nM
same,GI50,T-47D breast,233 nM
same,TGI,T-47D breast,3190 nM
same,GI50,PC-3 prostate,314 nM
same,TGI,PC-3 prostate,11700 nM
same,GI50,EKVX NSCLC,1270 nM
same,TGI,EKVX NSCLC,10700 nM
same,GI50,K-562 leukemia,255 nM
same,TGI,K-562 leukemia,> 100000 nM
same,GI50,KM12 colon,375 nM
same,TGI,KM12 colon,8770 nM
same,GI50,DU-145 prostate,200 nM
same,TGI,DU-145 prostate,9090 nM
same,GI50,SF-295 CNS,70.9 nM
same,TGI,SF-295 CNS,852 nM
same,GI50,NCI/ADR-RES ovarian,187 nM
same,TGI,NCI/ADR-RES ovarian,12400 nM
same,GI50,HOP-62 NSCLC,57.8 nM
same,TGI,HOP-62 NSCLC,2600 nM
same,GI50,SR leukemia,37.8 nM
same,TGI,SR leukemia,> 100000 nM
same,GI50,HT29 colon,202 nM
same,TGI,HT29 colon,23100 nM
same,GI50,UACC-257 melanoma,597 nM
same,TGI,UACC-257 melanoma,4390 nM
same,GI50,UO-31 renal,56.6 nM
same,TGI,UO-31 renal,1510 nM
same,GI50,SF-539 CNS,279 nM
same,TGI,SF-539 CNS,1070 nM
same,GI50,MALME-3M melanoma,352 nM
same,TGI,MALME-3M melanoma,2020 nM
same,GI50,HCT-116 colon,84.9 nM
same,TGI,HCT-116 colon,1700 nM
same,GI50,MDA-MB-435,474 nM
same,TGI,MDA-MB-435,5040 nM
same,GI50,NCI-H460 lung,40.7 nM
same,TGI,NCI-H460 lung,699 nM
same,GI50,NCI-H23 lung,218 nM
same,TGI,NCI-H23 lung,4270 nM
same,GI50,IGROV1 ovarian,163 nM
same,TGI,IGROV1 ovarian,2350 nM
same,GI50,RXF 393 renal,364 nM
same,TGI,RXF 393 renal,2430 nM
same,GI50,U251 CNS,101 nM
same,TGI,U251 CNS,3980 nM
same,GI50,RPMI-8226 leukemia,301 nM
same,TGI,RPMI-8226 leukemia,4700 nM
same,GI50,786-0 renal,223 nM
same,TGI,786-0 renal,716 nM
same,GI50,OVCAR-8 ovarian,364 nM
same,TGI,OVCAR-8 ovarian,7210 nM
same,GI50,SK-MEL-5 melanoma,224 nM
same,TGI,SK-MEL-5 melanoma,533 nM
same,GI50,SK-MEL-28 melanoma,1520 nM
same,TGI,SK-MEL-28 melanoma,12000 nM
same,GI50,SK-MEL-2 melanoma,2040 nM
same,TGI,SK-MEL-2 melanoma,6310 nM
same,GI50,CCRF-CEM leukemia,57.5 nM
same,TGI,CCRF-CEM leukemia,17800 nM
same,GI50,OVCAR-4 ovarian,686 nM
same,TGI,OVCAR-4 ovarian,9170 nM
same,GI50,HCC-2998 colon,386 nM
same,TGI,HCC-2998 colon,10200 nM
same,GI50,SF-268 CNS,158 nM
same,TGI,SF-268 CNS,9300 nM
COc1ccc2[nH]c(C(O)(Cc3cccnc3)Cc3cccnc3)cc2c1,TGI,SN12C renal,> 100000 nM
same,TGI,HS 578T breast,> 100000 nM
same,TGI,M14 melanoma,> 100000 nM
same,TGI,UACC-62 melanoma,> 100000 nM
same,TGI,SK-OV-3 ovarian,> 100000 nM
same,TGI,TK-10 renal,> 100000 nM
same,TGI,SNB-19 CNS,> 100000 nM
same,TGI,OVCAR-5 ovarian,> 100000 nM
same,TGI,MCF7 breast,> 100000 nM
same,TGI,OVCAR-3 ovarian,> 100000 nM
same,TGI,SW-620 colon,> 100000 nM
same,TGI,MOLT-4 leukemia,> 100000 nM
same,TGI,MDA-MB-231 breast,> 100000 nM
same,TGI,HCT-15 colon,> 100000 nM
same,TGI,BT-549 breast,> 100000 nM
same,TGI,SNB-75 CNS,> 100000 nM
same,TGI,HOP-92 NSCLC,> 100000 nM
same,TGI,ACHN renal,> 100000 nM
same,TGI,NCI-H226 lung,> 100000 nM
same,TGI,COLO 205 colon,> 100000 nM
same,TGI,A549 NSCLC,> 100000 nM
same,TGI,CAKI-1 renal,> 100000 nM
same,TGI,A498 renal,> 100000 nM
same,TGI,T-47D breast,> 100000 nM
same,TGI,PC-3 prostate,> 100000 nM
same,TGI,EKVX NSCLC,> 100000 nM
same,TGI,K-562 leukemia,> 100000 nM
same,TGI,KM12 colon,> 100000 nM
same,TGI,DU-145 prostate,> 100000 nM
same,TGI,SF-295 CNS,> 100000 nM
same,TGI,NCI/ADR-RES ovarian,> 100000 nM
same,TGI,HOP-62 NSCLC,> 100000 nM
same,TGI,SR leukemia,> 100000 nM
same,TGI,HT29 colon,> 100000 nM
same,TGI,UACC-257 melanoma,> 100000 nM
same,TGI,UO-31 renal,> 100000 nM
same,TGI,MALME-3M melanoma,> 100000 nM
same,TGI,HCT-116 colon,> 100000 nM
same,TGI,MDA-MB-435,> 100000 nM
same,TGI,NCI-H460 lung,> 100000 nM
same,TGI,NCI-H23 lung,> 100000 nM
same,TGI,IGROV1 ovarian,> 100000 nM
same,TGI,RXF 393 renal,> 100000 nM
same,TGI,U251 CNS,> 100000 nM
same,TGI,RPMI-8226 leukemia,> 100000 nM
same,TGI,786-0 renal,> 100000 nM
same,TGI,OVCAR-8 ovarian,> 100000 nM
same,TGI,SK-MEL-5 melanoma,> 100000 nM
same,TGI,SK-MEL-28 melanoma,> 100000 nM
same,TGI,SK-MEL-2 melanoma,> 100000 nM
same,TGI,CCRF-CEM leukemia,> 100000 nM
same,TGI,OVCAR-4 ovarian,> 100000 nM
same,TGI,HCC-2998 colon,> 100000 nM
same,TGI,SF-268 CNS,> 100000 nM

# — PubChem BioAssay (NCI)
